Assay [1] concerns the target T1, GST-JAK2(808-1132) (Homo sapiens, UniProt O60674).
T1 construct: GST-JAK2(808-1132); purchased Invitrogen (Carlsbad, USA) #4288
Briefly: JAK2 kinase assay (Caliper mobility shift, LabChip 3000). In kind it is biochemical. A digest of the protocol:
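Eight-point compound series (final 10–0.003 μM) tested on purchased GST-JAK2 kinase domain (808-1132). Peptide FITC-JAK3tide plus ATP reacted 60 min, 30 °C, then quenched with EDTA; turnover from charge-based separation of substrate and product.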

Assay [2] has as its system JAK2-dependent nuclear translocation of STAT5-GFP in U-2 OS osteosarcoma cells. Nature of the assay: STAT5 nuclear translocation assay (Cellomics), rhEpo stimulated U-2 OS STAT5-GFP cells. The assay is classed as cell-based. Conditions: Homo sapiens, U2OS; STAT5 translocation pathway. An excerpt: The medium-throughput (96-well format) cellular automated fluorescence microscopy Cellomics assay can be routinely used to assess the functional activation of Janus Kinases (JAKs), based on the nuclear translocation of their substrate, Signal Transducer and Activator of Transcription (STAT). Nuclear translocation can be monitored either in HT1080 fibrosarcoma cells stably transfected with STAT1 fused to Green Fluorescence Protein (GFP) or in U-2 OS osteosarcoma cells stably transfected with STAT5 fused to Green Fluorescence Protein (GFP). Stimulation of HT1080 cells with interferon-γ (IFN-γ) results in JAK1/JAK2-dependent nuclear translocation of STAT1-GFP, whereas stimulation of U-2 OS cells with recombinant human erythropoietin (rhEpo) results in JAK2-dependent nuclear translocation of STAT5-GFP, both of which can be quantified using the Cellomics Cyto/NucTrans software package. This assay may be used to provide an assessment of the nuclear-cytoplasmic differential (NCD) of STAT-GFP using Hoechst dye to define the boundaries of the nucleus.
U-2 OS osteosarcoma cells may be obtained from ATCC and can be cultured in standard RPMI medium supplemented with 10% FCS and 2 mM L-glutamine. Cells can be stably transfected with STAT5a-GFP using Lipofectamine following the manufacturers' protocol. 24 hours after transfection the medium can be replaced and selected in 400 μg/ml Geneticin. Subsequently, cells can be stably transfected with EpoR using Lipofectamine following the manufacturers' protocol. 24 hours after transfection the medium can be replaced and cells selected in 100 μg/ml Hygromycin B.
Compounds can be dissolved in DMSO to a final stock concentration of 10 mM and stored as aliquots at 4° C. Compounds may be pre-diluted in 100% DMSO at 10 mM, 3 mM 1 mM, 0.3 mM, 0.1 mM, 0.03 mM, 0.01 mM and 0.003 mM. Subsequently, compounds may be diluted in medium and added in 50 μl to the cells. The final compound concentrations tested may be 10 μM, 3 μM 1 μM, 0.3 μM, 0.1 μM, 0.03 μM, 0.01 μM and 0.003 μM and the final DMSO concentration can be 0.1%.
U-2 OS may be seeded at a cell density of 12,000 cells per well in clear-bottom black 96-well Packard View-Plates™. The following day, medium can be removed and replaced with medium containing either the vehicle (DMSO) or increasing concentrations of test compounds for 30 minutes at 37° C. Cells can then be stimulated for 1 hour by adding 10 μl per well of 50 U/ml rhEpo to obtain 5 U/ml of rhEpo as the final concentration. Following treatments, cells can fixed and processed as described above.
The plates can be read on a Cellomics® ArrayscanII automated fluorescence microscope plate reader equipped with a Mercury-Xenon white light illumination source and a Zeiss Axiovert inverted microscope, using the XF100 dichroic/emission filter cube and matching excitation filters, 10× magnification, and a 0.3 numerical aperture objective. Image acquisition and analysis can be performed using a customized protocol based on the ‘NuclearTranslocation’ Bioapplication. For each well, multiple images (fields) can be acquired until a minimum of 1000 cells are counted using two 2 channels: Channel 1 (Hoechst)=focus+nuclear mask, Channel 2 (GFP)=signal quantification in mask areas as outlined below. Nuclei may be first identified based on the Hoechst staining and a mask generated for each nucleus that then serves as a template to generate a circle (eroded inwards by 1 pixel) and a 3 pixel-wide collar-like ring (off-set outwards by 1 pixel), in which the nuclear and cytoplasmic intensity of GFP, respectively, are quantified in the corresponding channel. High content analysis yields numerous measurements per cell and the GFP intensity differential between the nuclear and the cytoplasmic masks may be chosen as a measure of sub-cellular STAT-GFP relocation. The resulting values may be averaged for all cells in the well to return a single measurement plus standard deviation. […]

Assay [3] deals with JAK1/JAK2-dependent nuclear translocation of STAT1-GFP in HT1080 fibrosarcoma cells. Briefly: STAT1 nuclear translocation assay (Cellomics), IFN-γ stimulated HT1080 STAT1-GFP cells. The assay is classed as cell-based. Conditions: Homo sapiens, HT-1080, STAT1 translocation pathway. A digest of the protocol:
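IC50 derived from percent nuclear STAT1-GFP translocation, computed from nuclear minus cytoplasmic GFP intensity against untreated baseline and DMSO-stimulated control. Stable HT1080 STAT1-GFP cells received compound (0.003–10 μM, 0.1% DMSO) 30 min ahead of a 2 h 100 ng/ml IFN-γ stimulus, then fixation and Hoechst nuclear masking.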

SMILES strings stand for the structures.

T1 sequence (O60674 808-1132): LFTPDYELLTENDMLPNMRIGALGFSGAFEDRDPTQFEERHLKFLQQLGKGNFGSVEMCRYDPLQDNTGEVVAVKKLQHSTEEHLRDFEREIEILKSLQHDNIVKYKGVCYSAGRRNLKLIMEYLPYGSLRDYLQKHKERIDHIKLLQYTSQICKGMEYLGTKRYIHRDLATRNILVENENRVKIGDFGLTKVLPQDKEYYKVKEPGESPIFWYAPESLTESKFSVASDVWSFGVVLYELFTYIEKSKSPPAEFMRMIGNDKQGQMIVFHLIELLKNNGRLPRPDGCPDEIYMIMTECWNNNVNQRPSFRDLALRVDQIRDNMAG

Regarding `OC1CCN(c2ccc(Nc3ncc4ccn(-c5cc(F)c(CN6CCOCC6)c(F)c5)c4n3)cn2)C1` (racemic) [Example 347, 1-{5-[7-(3,5-Difluoro-4-morpholin-4-ylmethyl-phenyl)-7H-pyrrolo[2,3-d]pyrimidin-2-ylamino]-pyridin-2-yl}-pyrrolidin-3-ol], the IC50 in assay [1] was no more than 3 nM; in assay [2], 13.3 nM.

Turning to `Fc1cc(-n2ccc3cnc(Nc4ccc(C5CNCCO5)cc4)nc32)cc(F)c1CN1CCOCC1` (racemic) [Example 354, [7-(3,5-Difluoro-4-morpholin-4-ylmethyl-phenyl)-7H-pyrrolo[2,3-d]pyrimidin-2-yl]-(4-morpholin-2-yl-phenyl)-amine], the IC50 in assay [1] is no more than 3 nM; in assay [2], 1.3 nM.

As for `C[C@@H]1CN[C@@H](C)CN1c1ccc(Nc2ncc3ccn(-c4ccc(S(=O)(=O)NC(C)(C)C)cc4)c3n2)cn1` (racemic) [Example 356, N-tert-Butyl-4-{2-[6-((2R,5S)-2,5-dimethyl-piperazin-1-yl)-pyridin-3-ylamino]-pyrrolo[2,3-d]pyrimidin-7-yl}-benzenesulfonamide], the IC50 was found to be 3.2 nM in assay [1] and 5.9 nM in assay [2].

In the case of `Fc1cc(-n2ccc3cnc(Nc4ccnc(N5CCNC(C(F)(F)F)C5)c4)nc32)cc(F)c1CN1CCOCC1` (racemic) [Example 364, [7-(3,5-Difluoro-4-morpholin-4-ylmethyl-phenyl)-7H-pyrrolo[2,3-d]pyrimidin-2-yl]-[2-(3-trifluoromethyl-piperazin-1-yl)-pyridin-4-yl]-amine], the IC50 in assay [1] was no more than 3 nM; in assay [2] it was 2.8 nM.

As for `Cc1ccc(Nc2ncc3ccn(-c4cc(F)c(CN5CCOCC5)c(F)c4)c3n2)cc1CN1C[C@H](C)NC[C@H]1C` (racemic) [Example 378, [7-(3,5-Difluoro-4-morpholin-4-ylmethyl-phenyl)-7H-pyrrolo[2,3-d]pyrimidin-2-yl]-[3-((2R,5S)-2,5-dimethyl-piperazin-1-ylmethyl)-4-methyl-phenyl]-amine], the IC50 stood at 13 nM in assay [1] and 45 nM in assay [2].

In the case of `Cc1ccc(Nc2ncc3ccn(-c4ccc(C(=O)N5CCS(=O)(=O)CC5)c(F)c4)c3n2)cc1CN1CCNC(C(F)(F)F)C1` (racemic) [Example 403], the IC50 in assay [1] is no more than 3 nM; in assay [2], 22.5 nM.

`Cc1ccc(Nc2ncc3ccn(-c4cc(F)c(CN5CCOCC5)c(F)c4)c3n2)cc1CN1CCNC(C(F)(F)F)C1` (racemic) [Example 404, [7-(3,5-Difluoro-4-morpholin-4-ylmethyl-phenyl)-7H-pyrrolo[2,3-d]pyrimidin-2-yl]-[4-methyl-3-(3-trifluoromethyl-piperazin-1-ylmethyl)-phenyl]-amine]: the IC50 in assay [1] was 5.6 nM; in assay [2], 141 nM.

In the case of `Fc1cc(-n2ccc3cnc(Nc4ccnc(CN5CCNC(C(F)(F)F)C5)c4)nc32)cc(F)c1CN1CCOCC1` (racemic) [Example 408, [7-(3,5-Difluoro-4-morpholin-4-ylmethyl-phenyl)-7H-pyrrolo[2,3-d]pyrimidin-2-yl]-[2-(3-trifluoromethyl-piperazin-1-ylmethyl)-pyridin-4-yl]-amine], the IC50 in assay [1] was no more than 3 nM; in assay [2], 9.2 nM.

`Cc1ccc(Nc2ncc3ccn(-c4cc(F)c(CN5CCOCC5)c(F)c4)c3n2)cc1CN1CCC(O)C1` (racemic) [Example 411, 1-{5-[7-(3,5-Difluoro-4-morpholin-4-ylmethyl-phenyl)-7H-pyrrolo[2,3-d]pyrimidin-2-ylamino]-2-methyl-benzyl}-pyrrolidin-3-ol]: the IC50 in assay [1] is no more than 3 nM; in assay [2], 2.6 nM.

In the case of `CC(=O)N1CCN(Cc2ccc(Nc3ncc4ccn(-c5cc(F)c(CN6CCNC(=O)C6)c(F)c5)c4n3)cc2)CC1` [Example 339, 4-(4-{2-[4-(4-Acetyl-piperazin-1-ylmethyl)-phenylamino]-pyrrolo[2 3-d]pyrimidin-7-yl}-2,6-difluoro-benzyl)-piperazin-2-one], the half-maximal inhibitory concentration (IC50) in assay [3] came out at 285 nM; in assay [1] it was 3.7 nM.

Turning to `O=C1CN(Cc2c(F)cc(-n3ccc4cnc(Nc5ccc(CN6CCN(C7CC7)CC6)cc5)nc43)cc2F)CCN1` [Example 340, 4-(4-{2-[4-(4-Cyclopropyl-piperazin-1-ylmethyl)-phenylamino]-pyrrolo[2,3-d]pyrimidin-7-yl}-2,6-difluoro-benzyl)-piperazin-2-one], the IC50 amounted to 270 nM in assay [3] and 7.2 nM in assay [1].

On to `C[C@@H]1CN(c2ccc(Nc3ncc4ccn(-c5cc(F)c(CN6CCNC(=O)C6)c(F)c5)c4n3)cn2)C[C@H](C)N1` [Example 342, 4-(4-{2-[6-(cis-3,5-Dimethyl-piperazin-1-yl)-pyridin-3-ylamino]-pyrrolo[2,3-d]pyrimidin-7-yl}-2,6-difluoro-benzyl)-piperazin-2-one], for which the IC50 was 479 nM in assay [3] and no more than 3 nM in assay [1].

As for `Cc1ccc(Nc2ncc3ccn(-c4cc(F)c(CN5CCNC(=O)C5)c(F)c4)c3n2)cc1CN1CCN(C)CC1` [Example 343, 4-(2,6-Difluoro-4-{2-[4-methyl-3-(4-methyl-piperazin-1-ylmethyl)-phenylamino]-pyrrolo[2,3-d]pyrimidin-7-yl}-benzyl)-piperazin-2-one], the half-inhibitory concentration (IC50) was 151 nM in assay [3] and no more than 3 nM in assay [1].

With `C[C@@H]1CN(c2ccc(Nc3ncc4ccn(-c5cc(F)c(CN6CCS(=O)(=O)CC6)c(F)c5)c4n3)cn2)C[C@H](C)N1` [Example 441, [6-(cis-3,5-Dimethyl-piperazin-1-yl)-pyridin-3-yl]-{7-[4-(1,1-dioxido-thiomorpholin-4-ylmethyl)-3,5-difluoro-phenyl]-7H-pyrrolo[2,3-d]pyrimidin-2-yl}-amine], the IC50 in assay [3] was 45 nM; in assay [1], no more than 3 nM.

As for `CN1CCN(c2ccc(Nc3ncc4ccn(-c5cc(F)c(CN6CCS(=O)(=O)CC6)c(F)c5)c4n3)cn2)CC1` [Example 443, {7-[4-(1,1-Dioxido-thiomorpholin-4-ylmethyl)-3,5-difluoro-phenyl]-7H-pyrrolo[2,3-d]pyrimidin-2-yl}-[6-(4-methyl-piperazin-1-yl)-pyridin-3-yl]-amine], the results for the IC50 in assay [3] and in assay [1] were 9.5 nM and no more than 3 nM, respectively.

`O=S1(=O)CCN(Cc2c(F)cc(-n3ccc4cnc(Nc5ccc(N6CCNCC6)nc5)nc43)cc2F)CC1` [Example 444, {7-[4-(1,1-Dioxido-thiomorpholin-4-ylmethyl)-3,5-difluoro-phenyl]-7H-pyrrolo[2,3-d]pyrimidin-2-yl}-(6-piperazin-1-yl-pyridin-3-yl)-amine]: the IC50 is 90 nM in assay [3] and no more than 3 nM in assay [1].

For `CC(C)Oc1ccc(Nc2ncc3ccn(-c4ccc(C(=O)N5CCOCC5)cc4F)c3n2)cc1` [Example 522, {3-Fluoro-4-[2-(4-isopropoxy-phenylamino)-pyrrolo[2,3-d]pyrimidin-7-yl]-phenyl}-morpholin-4-yl-methanone], the IC50 in assay [3] amounted to 2890 nM; in assay [1], 8 nM.

What is called IC50 is the point on the concentration scale where inhibition reaches its midpoint.

(Values after patent US8420657B2 (Novartis AG, priority 2008, dated 2013).)
